Measurements from patent US7087642B2 (priority 1999, dated 2006).
Read-outs that look alike come from different tables or passages of the source.

Key:
IMPDH human type II = IMPDH human type II (Homo sapiens, UniProt P12268); assay: biochemical
human PBMC T cells = assay: cells; assay type: cell-based; conditions: read-out: T-cells (IC50)
human PBMC B cells = assay: cells; assay type: cell-based; conditions: read-out: B-cells (IC50)

| Compound | Ki (IMPDH human type II; read-out: Ki) [nM] | IC50 (human PBMC T cells; Homo sapiens, 72 h) [nM] | IC50 (human PBMC B cells; Homo sapiens, 72 h) [nM] | further results |
| --- | --- | --- | --- | --- |
| CC[C@H](CC#N)OC(=O)NCc1cccc(NC(=O)Nc2ccc(-c3cnco3)c(OC)c2)c1 [Compound 81] | 10 to 50 | 100 to 1000 | 100 to 1000 | – |
| COc1cc(NC(=O)Nc2cccc(CNC(=O)OC(CN(CC(C)C)CC3CC3)c3ccccc3)c2)ccc1-c1cnco1 (centres unmarked) [Compound 117] | > 50 | > 1000 | > 1000 | – |
| COc1cc(NC(=O)Nc2cccc(CNC(=O)OC(CC#N)CC#N)c2)ccc1-c1cnco1 [Compound 13] | < 10 | 100 to 1000 | 100 to 1000 | – |
| CCN(CC)C[C@@H](OC(=O)NCc1cccc(NC(=O)Nc2ccc(-c3cnco3)c(OC)c2)c1)C1CCCCC1 [Compound 157] | 10 to 50 | – | – | – |
| COc1cc(NC(=O)Nc2cccc(CNC(=O)O[C@@H](C)CC#N)c2)ccc1-c1cnco1 [Compound 28] | < 10 | – | – | IC50 (human PBMC T cells): 100 to 1000 nM; IC50 (human PBMC B cells): 100 to 1000 nM |
| COc1cc(NC(=O)Nc2cccc(CNC(=O)OC(CN3CC[S+]([O-])CC3)c3ccccc3)c2)ccc1-c1cnco1 (centres unmarked) [Compound 106] | – | < 100 | < 100 | – |
| COc1cc(NC(=O)Nc2cccc(CNC(=O)O[C@H](CC#N)COCc3ccccc3)c2)ccc1-c1cnco1 [Compound 55] | < 10 | – | – | – |
| COc1cc(NC(=O)Nc2cccc(CNC(=O)O[C@H](CO)CCO)c2)ccc1-c1cnco1 [Compound 141] | 10 to 50 | – | – | – |
| COc1cc(NC(=O)Nc2cccc(CNC(=O)OC(CC#N)CN3CCCCC3)c2)ccc1-c1cnco1 (centres unmarked) [Compound 21] | – | 100 to 1000 | > 1000 | – |
| COc1cc(NC(=O)Nc2cccc(CNC(=O)OC(CCN(C)C(=O)OC(C)(C)C)c3ccccc3)c2)ccc1-c1cnco1 (centres unmarked) [Compound 31] | 10 to 50 | – | – | – |
| CCC(CC#N)OC(=O)N[C@@H](C)c1cccc(NC(=O)Nc2ccc(C#N)c(Cl)c2)c1 (some centres unmarked) [Compound 183] | – | 100 to 1000 | 100 to 1000 | – |
| CCC(NC(=O)O[C@H](CC)CC#N)c1cccc(NC(=O)Nc2ccc(C#N)c(OC)c2)c1 (some centres unmarked) [Compound 178] | > 50 | – | – | – |
| COc1cc(NC(=O)Nc2cccc([C@H](C)NC(=O)OC3CCOC3)c2)ccc1C#N (some centres unmarked) [Compound 184] | – | 100 to 1000 | 100 to 1000 | – |
| CC[C@H](COC(C)=O)OC(=O)NCc1cccc(NC(=O)Nc2ccc(-c3cnco3)c(OC)c2)c1 [Compound 94] | < 10 | – | – | – |
| CC[C@@H](CO)OC(=O)N[C@@H](C)c1cccc(NC(=O)Nc2ccc(C#N)c(OC)c2)c1 [Compound 176] | > 50 | – | – | – |
| CCN(CC(OC(=O)NCc1cccc(NC(=O)Nc2ccc(-c3cnco3)c(OC)c2)c1)c1ccccc1)C1CC1 (centres unmarked) [Compound 135] | > 50 | – | – | – |
| CC[C@H](CO)OC(=O)N[C@@H](C)c1cccc(NC(=O)Nc2ccc(-c3cnco3)c(OC)c2)c1 [Compound 164] | 10 to 50 | – | – | – |
| COc1cc(NC(=O)Nc2cccc(CNC(=O)O[C@@H](CCl)CC#N)c2)ccc1-c1cnco1 [Compound 25] | < 10 | – | – | – |
| CCN(C)CCC(OC(=O)NCc1cccc(NC(=O)Nc2ccc(-c3cnco3)c(OC)c2)c1)c1ccccc1 (centres unmarked) [Compound 139] | – | – | – | Ki (IMPDH human type II): > 50 nM |
| CC[C@@H](CC#N)OC(=O)N[C@@H](C)c1cccc(NC(=O)Nc2ccc(C#N)c(OC)c2)c1 [Compound 168] | – | – | – | Ki (IMPDH human type II): 10 to 50 nM |
| COc1cc(NC(=O)Nc2cccc(CNC(=O)O[C@@H]3CC[C@H](OC(C)=O)C3)c2)ccc1-c1cnco1 [Compound 85] | > 50 | – | – | – |
| CCN(CC1CC1)CC(OC(=O)NCc1cccc(NC(=O)Nc2ccc(-c3cnco3)c(OC)c2)c1)c1ccccc1 (centres unmarked) [Compound 134] | – | 100 to 1000 | 100 to 1000 | – |

| Compound | Ki (IMPDH human type II; read-out: Ki) [nM] | IC50 (human PBMC T cells; Homo sapiens, 72 h) [nM] | IC50 (human PBMC B cells; Homo sapiens, 72 h) [nM] | further results |
| --- | --- | --- | --- | --- |
| COc1cc(NC(=O)Nc2cccc(CNC(=O)O[C@H](CN(CC3CC3)C3CC3)c3ccccc3)c2)ccc1-c1cnco1 [Compound 137] | > 50 | – | – | – |
| COc1cc(NC(=O)Nc2cccc(CNC(=O)OC(CCN3CCCC3)c3ccccc3)c2)ccc1-c1cnco1 (centres unmarked) [Compound 56] | < 10 | – | 100 to 1000 | – |
| CCOc1cc(NC(=O)Nc2cccc([C@H](C)NC(=O)O[C@H]3CCOC3)c2)ccc1C#N [Compound 186] | > 50 | – | – | – |
| CCC(COC(N)=O)OC(=O)NCc1cccc(NC(=O)Nc2ccc(-c3cnco3)c(OC)c2)c1 (centres unmarked) [Compound 159] | – | 100 to 1000 | 100 to 1000 | – |
| CC[C@H](CC#N)OC(=O)N[C@@H](C)c1cccc(NC(=O)Nc2ccc(C#N)c(Cl)c2)c1 [Compound 183] | – | – | – | Ki (IMPDH human type II): 10 to 50 nM |
| CC[C@H](CC#N)OC(=O)N[C@H](C)c1cccc(NC(=O)Nc2ccc(-c3cnco3)c(OC)c2)c1 [Compound 171] | > 50 | – | – | – |
| CC[C@H](COP(=O)(O)O)OC(=O)NCc1cccc(NC(=O)Nc2ccc(-c3cnco3)c(OC)c2)c1 [Compound 96] | 10 to 50 | – | – | – |
| COc1cc(NC(=O)Nc2cccc(CNC(=O)O[C@@H]3CCC[C@H]3N3CCOCC3)c2)ccc1-c1cnco1 [Compound 86] | 10 to 50 | – | – | – |
| CCN(CC)C[C@@H](OC(=O)NC(C)c1cccc(NC(=O)Nc2ccc(-c3cnco3)c(OC)c2)c1)c1ccccc1 (some centres unmarked) [Compound 167] | > 50 | – | – | – |
| CCC(CC#N)OC(=O)N[C@H](C)c1cccc(NC(=O)Nc2ccc(C#N)c(OC)c2)c1 (some centres unmarked) [Compound 172] | – | > 1000 | – | IC50 (human PBMC B cells): > 1000 nM |
| CC[C@H](COC(=O)CNC(=O)OC(C)(C)C)OC(=O)NCc1cccc(NC(=O)Nc2ccc(-c3cnco3)c(OC)c2)c1 [Compound 93] | 10 to 50 | – | – | – |
| COc1cc(NC(=O)Nc2cccc(CNC(=O)O[C@H](CN3CC[S+]([O-])CC3)c3ccccc3)c2)ccc1-c1cnco1 [Compound 106] | > 50 | – | – | – |
| CCCN(CC)CC(OC(=O)NCc1cccc(NC(=O)Nc2ccc(-c3cnco3)c(OC)c2)c1)c1ccccc1 (centres unmarked) [Compound 111] | – | 100 to 1000 | 100 to 1000 | – |
| CCC(NC(=O)O[C@@H](CC)CC#N)c1cccc(NC(=O)Nc2ccc(C#N)c(OC)c2)c1 (some centres unmarked) [Compound 177] | > 50 | – | – | – |
| COc1cc(NC(=O)Nc2cccc(CNC(=O)O[C@H](CCC#N)COCc3ccccc3)c2)ccc1-c1cnco1 [Compound 53] | < 10 | – | – | – |
| CCC(CNC(=O)OC(C)(C)C)OC(=O)NCc1cccc(NC(=O)Nc2ccc(-c3cnco3)c(OC)c2)c1 (centres unmarked) [Compound 160] | > 50 | – | – | – |
| CCN(CC)CCC(OC(=O)NCc1cccc(NC(=O)Nc2ccc(-c3cnco3)c(OC)c2)c1)c1ccccc1 (centres unmarked) [Compound 140] | – | – | – | Ki (IMPDH human type II): > 50 nM |
| CCC(CN)OC(=O)NCc1cccc(NC(=O)Nc2ccc(-c3cnco3)c(OC)c2)c1 (centres unmarked) [Compound 161] | < 10 | – | – | – |
| CCN(CC)CC(OC(=O)NCc1cccc(NC(=O)Nc2ccc(-c3cnco3)c(OC)c2)c1)C1CCCCC1 (centres unmarked) [Compound 157] | – | < 100 | < 100 | – |
| COc1cc(NC(=O)Nc2cccc(CNC(=O)OC(CCN(C)CC(C)C)c3ccccc3)c2)ccc1-c1cnco1 (centres unmarked) [Compound 124] | > 50 | – | – | – |
| CC[C@H](COCc1ccccc1)OC(=O)NCc1cccc(NC(=O)Nc2ccc(-c3cnco3)c(OC)c2)c1 [Compound 54] | < 10 | – | – | – |
| COc1cc(NC(=O)Nc2cccc([C@H](C)NC(=O)O[C@@H]3CCOC3)c2)ccc1C#N [Compound 184] | 10 to 50 | – | – | – |

| Compound | Ki (IMPDH human type II; read-out: Ki) [nM] | IC50 (human PBMC T cells; Homo sapiens, 72 h) [nM] | IC50 (human PBMC B cells; Homo sapiens, 72 h) [nM] | further results |
| --- | --- | --- | --- | --- |
| CC[C@@H](CC#N)OC(=O)N[C@H](C)c1cccc(NC(=O)Nc2ccc(C#N)c(OC)c2)c1 [Compound 172] | – | – | – | Ki (IMPDH human type II): > 50 nM |
| CC[C@H](CO)OC(=O)N[C@H](C)c1cccc(NC(=O)Nc2ccc(-c3cnco3)c(OC)c2)c1 [Compound 165] | > 50 | – | – | – |
| CCC(COS(N)(=O)=O)OC(=O)NCc1cccc(NC(=O)Nc2ccc(-c3cnco3)c(OC)c2)c1 (centres unmarked) [Compound 138] | – | 100 to 1000 | 100 to 1000 | – |
| CC[C@H](COC(N)=O)OC(=O)NCc1cccc(NC(=O)Nc2ccc(-c3cnco3)c(OC)c2)c1 [Compound 159] | < 10 | – | – | – |
| CCCN(CC)C[C@@H](OC(=O)NCc1cccc(NC(=O)Nc2ccc(-c3cnco3)c(OC)c2)c1)c1ccccc1 [Compound 111] | > 50 | – | – | – |
| CC[C@H](COC(=O)CN)OC(=O)NCc1cccc(NC(=O)Nc2ccc(-c3cnco3)c(OC)c2)c1 [Compound 95] | 10 to 50 | – | – | – |
| COc1cc(NC(=O)Nc2cccc(CNC(=O)O[C@H](CC#N)CN(C)C)c2)ccc1-c1cnco1 [Compound 17] | < 10 | – | – | – |
| CCC(CC#N)OC(=O)N[C@H](C)c1cccc(NC(=O)Nc2ccc(-c3cnco3)c(OC)c2)c1 (some centres unmarked) [Compound 171] | – | 100 to 1000 | < 100 | – |
| CCCN(CC(OC(=O)NCc1cccc(NC(=O)Nc2ccc(-c3cnco3)c(OC)c2)c1)c1ccccc1)C1CC1 (centres unmarked) [Compound 136] | > 50 | – | – | – |
| COc1cc(NC(=O)Nc2cccc(CNC(=O)OC(CC#N)CN(C)C)c2)ccc1-c1cnco1 (centres unmarked) [Compound 17] | – | > 1000 | > 1000 | – |
| CCC(CO)OC(=O)N[C@@H](C)c1cccc(NC(=O)Nc2ccc(C#N)c(OC)c2)c1 (some centres unmarked) [Compound 176] | – | > 1000 | > 1000 | – |
| COc1cc(NC(=O)Nc2cccc(CNC(=O)OC3CCC[C@H]3N3CCOCC3)c2)ccc1-c1cnco1 (some centres unmarked) [Compound 86] | – | > 1000 | > 1000 | – |
| COc1cc(NC(=O)Nc2cccc(CNC(=O)OC(CN3CCSCC3)c3ccccc3)c2)ccc1-c1cnco1 (centres unmarked) [Compound 105] | – | 100 to 1000 | 100 to 1000 | – |
| COc1cc(NC(=O)Nc2cccc(CNC(=O)OC(CCl)CC#N)c2)ccc1-c1cnco1 (centres unmarked) [Compound 25] | – | 100 to 1000 | 100 to 1000 | – |
| COc1cc(NC(=O)Nc2cccc(CNC(=O)O[C@@H](CC#N)CN3CCCCC3)c2)ccc1-c1cnco1 [Compound 21] | < 10 | – | – | – |
| CCC(CC#N)OC(=O)N[C@@H](C)c1cccc(NC(=O)Nc2ccc(C#N)c(OC)c2)c1 (some centres unmarked) [Compound 168] | – | 100 to 1000 | 100 to 1000 | – |
| COc1cc(NC(=O)Nc2cccc(CNC(=O)O[C@H](CN3CCSCC3)c3ccccc3)c2)ccc1-c1cnco1 [Compound 105] | < 10 | – | – | – |
| CCN(CC1CC1)C[C@@H](OC(=O)NCc1cccc(NC(=O)Nc2ccc(-c3cnco3)c(OC)c2)c1)c1ccccc1 [Compound 134] | 10 to 50 | – | – | – |
| CCC(CO)OC(=O)N[C@@H](C)c1cccc(NC(=O)Nc2ccc(-c3cnco3)c(OC)c2)c1 (some centres unmarked) [Compound 164] | – | 100 to 1000 | 100 to 1000 | – |
| CCN(CC)CC(OC(=O)NCc1cccc(NC(=O)Nc2ccc(-c3cnco3)c(OC)c2)c1)c1nccs1 (centres unmarked) [Compound 142] | 10 to 50 | – | – | – |
| CC[C@H](COS(N)(=O)=O)OC(=O)NCc1cccc(NC(=O)Nc2ccc(-c3cnco3)c(OC)c2)c1 [Compound 138] | < 10 | – | – | – |
